These results are taken from the supplement of paper PMC10307832.

Test in all cases: relative viability (nuclei count vs DMSO), 5 days (fraction); higher = more cells survive
Compound in assay [1]: C/C(=N\NC(=S)N1CCC1)/C2=CC=CC=N2 + COc1cccc2cc(-c3nc([C@H]4CC[C@H](C(=O)O)CC4)n4ncnc(N)c34)[nH]c12 [OSI-027] (partner 0.5 µM)
Put shortly:
(§1)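 For relative viability, nuclei counts in treated wells were divided by those in vehicle wells. Lung cancer cell lines had been pin-tool dosed in 1536-well plates the day after seeding and cultured for 5 days, then fixed and stained in one step (final 0.05% Triton X-100, 1% formaldehyde, 1 ug/ml Hoechst) and imaged at 4×. Doses were one drug alone or a fixed anchor-drug dose plus five library-drug doses (not always all listed) in √10 steps, and values are duplicate-plate medians.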

Compound in assay [2]: C/C(=N\NC(=S)N1CCC1)/C2=CC=CC=N2 + CC(=O)Nc1cccc(-n2c(=O)n(C3CC3)c(=O)c3c(Nc4ccc(I)cc4F)n(C)c(=O)c(C)c32)c1 [Trametinib] (partner 0.02 µM)
Put shortly: as §1

Compound in assay [3]: C/C(=N\NC(=S)N1CCC1)/C2=CC=CC=N2 + C[C@]1(O)C[C@@H](c2nc(-c3ccc4ccc(-c5ccccc5)nc4c3)c3c(N)nccn32)C1 [Linsitinib] (partner 1 µM)
Put shortly:
as §1

Compound in assay [4]: C/C(=N\NC(=S)N1CCC1)/C2=CC=CC=N2 + CS(=O)(=O)CCNCc1ccc(-c2ccc3ncnc(Nc4ccc(OCc5cccc(F)c5)c(Cl)c4)c3c2)o1 [Lapatinib] (partner 2 µM)
Put shortly: as §1

Take PC-3 [JPC-3]: the relative viability in assay [1] (first compound 0.05 µM) is 0.271; in assay [1] (first compound 0.1581 µM) it was 0.301; in assay [1] (first compound 0.5 µM), 0.265; in assay [1] (first compound 1.581 µM) it was 0.25; in assay [1] (first compound 5 µM), 0.214; in assay [2] (first compound 0.05 µM) it was 0.402. The relative viability in assay [2] (first compound 0.1581 µM) was determined as 0.409; in assay [2] (first compound 0.5 µM) it was 0.318; in assay [2] (first compound 1.581 µM), 0.357; in assay [2] (first compound 5 µM), 0.342; in assay [3] (first compound 0.05 µM), 0.647; in assay [3] (first compound 0.1581 µM) it was 0.973. The relative viability was determined as 0.469 in assay [3] (first compound 0.5 µM); 0.313 in assay [3] (first compound 1.581 µM); 0.311 in assay [3] (first compound 5 µM); 0.267 in assay [4] (first compound 0.05 µM); 0.27 in assay [4] (first compound 0.1581 µM); 0.259 in assay [4] (first compound 0.5 µM). The relative viability came to 0.228 in assay [4] (first compound 1.581 µM) and 0.229 in assay [4] (first compound 5 µM).
As for PC-14, the relative viability stood at 0.0306 in assay [1] (first compound 0.05 µM); 0.0778 in assay [1] (first compound 0.1581 µM); 0.0467 in assay [1] (first compound 0.5 µM); 0.041 in assay [1] (first compound 1.581 µM); 0.0364 in assay [1] (first compound 5 µM); 0.0651 in assay [2] (first compound 0.05 µM). Also, the relative viability in assay [2] (first compound 0.1581 µM) was determined as 0.0788; in assay [2] (first compound 0.5 µM), 0.0488; in assay [2] (first compound 1.581 µM) it was 0.039; in assay [2] (first compound 5 µM), 0.0546; in assay [3] (first compound 0.05 µM), 0.0952; in assay [3] (first compound 0.1581 µM), 0.125. Also, the relative viability is 0.12 in assay [3] (first compound 0.5 µM); 0.0874 in assay [3] (first compound 1.581 µM); 0.117 in assay [3] (first compound 5 µM); 0.11 in assay [4] (first compound 0.05 µM); 0.112 in assay [4] (first compound 0.1581 µM); 0.124 in assay [4] (first compound 0.5 µM). Also, the relative viability in assay [4] (first compound 1.581 µM) stood at 0.0912; in assay [4] (first compound 5 µM) it was 0.0865.
With RERF-LC-KJ, the relative viability in assay [1] (first compound 0.05 µM) amounted to 0.266; in assay [1] (first compound 0.1581 µM), 0.258; in assay [1] (first compound 0.5 µM) it was 0.251; in assay [1] (first compound 1.581 µM), 0.221; in assay [1] (first compound 5 µM) it was 0.243; in assay [2] (first compound 0.05 µM), 0.242. The relative viability in assay [2] (first compound 0.1581 µM) was determined as 0.241; in assay [2] (first compound 0.5 µM), 0.204; in assay [2] (first compound 1.581 µM), 0.222; in assay [2] (first compound 5 µM), 0.214; in assay [3] (first compound 0.05 µM) it was 0.233; in assay [3] (first compound 0.1581 µM) it was 0.253. In addition, the relative viability in assay [3] (first compound 0.5 µM) came out at 0.227; in assay [3] (first compound 1.581 µM), 0.243; in assay [3] (first compound 5 µM), 0.229; in assay [4] (first compound 0.05 µM), 0.258; in assay [4] (first compound 0.1581 µM) it was 0.263; in assay [4] (first compound 0.5 µM), 0.23. The relative viability in assay [4] (first compound 1.581 µM) amounted to 0.253; in assay [4] (first compound 5 µM), 0.275.
Consider SK-LU-1, for which the relative viability in assay [1] (first compound 0.05 µM) was 0.145; in assay [1] (first compound 0.1581 µM) it was 0.136; in assay [1] (first compound 0.5 µM), 0.131; in assay [1] (first compound 1.581 µM), 0.124; in assay [1] (first compound 5 µM), 0.151; in assay [2] (first compound 0.05 µM), 0.294. Moreover, the relative viability in assay [2] (first compound 0.1581 µM) turned out to be 0.278; in assay [2] (first compound 0.5 µM), 0.254; in assay [2] (first compound 1.581 µM) it was 0.191; in assay [2] (first compound 5 µM), 0.258; in assay [3] (first compound 0.05 µM), 0.274; in assay [3] (first compound 0.1581 µM) it was 0.231. For the same cell line, the relative viability in assay [3] (first compound 0.5 µM) came out at 0.224; in assay [3] (first compound 1.581 µM), 0.202; in assay [3] (first compound 5 µM), 0.21; in assay [4] (first compound 0.05 µM), 0.301; in assay [4] (first compound 0.1581 µM), 0.149; in assay [4] (first compound 0.5 µM), 0.14. Also, the relative viability was 0.142 in assay [4] (first compound 1.581 µM) and 0.204 in assay [4] (first compound 5 µM).
In the case of SK-MES-1, the relative viability in assay [1] (first compound 0.05 µM) worked out at 0.197; in assay [1] (first compound 0.1581 µM) it was 0.182; in assay [1] (first compound 0.5 µM) it was 0.157; in assay [1] (first compound 1.581 µM), 0.137; in assay [1] (first compound 5 µM), 0.186; in assay [2] (first compound 0.05 µM), 0.277. Besides, the relative viability in assay [2] (first compound 0.1581 µM) stood at 0.236; in assay [2] (first compound 0.5 µM) it was 0.245; in assay [2] (first compound 1.581 µM), 0.213; in assay [2] (first compound 5 µM), 0.246; in assay [3] (first compound 0.05 µM), 0.269; in assay [3] (first compound 0.1581 µM), 0.236. For the same cell line, the relative viability came to 0.225 in assay [3] (first compound 0.5 µM); 0.205 in assay [3] (first compound 1.581 µM); 0.183 in assay [3] (first compound 5 µM); 0.301 in assay [4] (first compound 0.05 µM); 0.293 in assay [4] (first compound 0.1581 µM); 0.213 in assay [4] (first compound 0.5 µM). In addition, the relative viability is 0.185 in assay [4] (first compound 1.581 µM) and 0.2 in assay [4] (first compound 5 µM).
Consider SW 1573, for which the relative viability in assay [1] (first compound 0.05 µM) is 0.0449; in assay [1] (first compound 0.1581 µM), 0.0562; in assay [1] (first compound 0.5 µM), 0.134; in assay [1] (first compound 1.581 µM), 0.065; in assay [1] (first compound 5 µM), 0.0544; in assay [2] (first compound 0.05 µM), 0.0975. Further, the relative viability in assay [2] (first compound 0.1581 µM) turned out to be 0.0992; in assay [2] (first compound 0.5 µM) it was 0.119; in assay [2] (first compound 1.581 µM) it was 0.0672; in assay [2] (first compound 5 µM), 0.0635; in assay [3] (first compound 0.05 µM), 0.0916; in assay [3] (first compound 0.1581 µM), 0.123. Also, the relative viability in assay [3] (first compound 0.5 µM) turned out to be 0.113; in assay [3] (first compound 1.581 µM) it was 0.152; in assay [3] (first compound 5 µM) it was 0.0935; in assay [4] (first compound 0.05 µM), 0.164; in assay [4] (first compound 0.1581 µM), 0.17; in assay [4] (first compound 0.5 µM) it was 0.182. The relative viability in assay [4] (first compound 1.581 µM) amounted to 0.118; in assay [4] (first compound 5 µM), 0.109.
Turning to UMC-11, the relative viability in assay [1] (first compound 0.05 µM) was determined as 0.235; in assay [1] (first compound 0.1581 µM) it was 0.186; in assay [1] (first compound 0.5 µM), 0.183; in assay [1] (first compound 1.581 µM) it was 0.181; in assay [1] (first compound 5 µM) it was 0.142; in assay [2] (first compound 0.05 µM) it was 0.164. In addition, the relative viability came out at 0.164 in assay [2] (first compound 0.1581 µM); 0.159 in assay [2] (first compound 0.5 µM); 0.113 in assay [2] (first compound 1.581 µM); 0.129 in assay [2] (first compound 5 µM); 0.369 in assay [3] (first compound 0.05 µM); 0.238 in assay [3] (first compound 0.1581 µM). The relative viability was found to be 0.205 in assay [3] (first compound 0.5 µM); 0.169 in assay [3] (first compound 1.581 µM); 0.161 in assay [3] (first compound 5 µM); 0.201 in assay [4] (first compound 0.05 µM); 0.195 in assay [4] (first compound 0.1581 µM); 0.165 in assay [4] (first compound 0.5 µM). The relative viability in assay [4] (first compound 1.581 µM) was 0.145; in assay [4] (first compound 5 µM), 0.134.
